Source: patent US20220325301A1, “AUXOTROPHIC SELECTION METHODS” (AUXOLYTIC LTD, priority 2019, published 2022)

Key:
[1] = tested on: UMPS knockout H9 human embryonic stem cells (hESCs); test: Lineage-specific auxotrophy during beta cell differentiation (GFP ratio in mCherry-off vs mCherry-on cells, fluorescence microscopy); type: cell-based; conditions: uridine withdrawal at day 12
Source text: As a proof of concept, UMPS knockout cells were engineered to express insulin and were differentiated to pancreatic progenitor cells using an appropriate method as described, for example, in Ma et al. (2018), Pagliuca et al. (2014), and/or Rezania et al. (2014) discussed and incorporated herein. The UMPS gene was knocked out in H9 human embryonic stem cells (hESCs) according to the methods described herein. A GFP-Luciferase expression construct under regulation of a constitutive promoter was integrated by homologous recombination into the HBB locus (see, for example, Dever, Daniel P., et al. “CRISPR/Cas9 β-globin gene targeting in human haematopoietic stem cells.” Nature 539.7629 (2016): 384-389, the contents of which are incorporated herein by reference in their entirety). […] Cells were monitored and assessed for mCherry and UMPS expression on subsequent days up to day 25. The differentiation protocol was followed with cells either in the continuous presence of uridine through day 18 or through the end of the culture period, or through only day 12 (during Stage 4). mCherry and UMPS expression were assessed. An mCherry on vs. off threshold was defined to identify UMPS expressing cells (given UMPS expression is coupled to mCherry) using thresholding based on fluorescence images. […]
Therefore, expression of GFP in mCherry negative cells, when uridine is present, was expected to be higher than the expression of GFP in mCherry negative cells when uridine is absent. […] The results are shown in Table 7, where the “Auxotrophy Metric” was calculated as the mean GFP ratio in uridine-withdrawn conditions divided by the mean GFP ratio in uridine-continued conditions: [(mean GFP(mCherry-Off)/mean GFP(mCherry-On)) uridine-withdrawn-conditions]/[(mean GFP(mCherry-Off)/mean GFP(mCherry-On)) uridine-continued conditions].

UMPS knockout cells [2] = test: Selection of cells re-expressing UMPS in a UMPS-/- background (% mCherry+ by flow cytometry); type: cell-based; conditions: after 14 days in culture
Procedure: A construct (SEQ ID NO: 42) expressing mCherry and UMPS separated by a 2A linker sequence under control of a constitutive promoter (EF1a) delivered via DNA vector was inserted by electroporation into the CCR5 locus targeted using homologous recombination arms. Cells were grown in the presence of uridine to alleviate any selection pressure, then uridine was removed to select for cells successfully re-expressing UMPS. Cells were sorted by expression of mCherry using flow cytometry. After 14 days in culture, % mCherry+ cells was approximately 20% in the presence of uridine; % mCherry+ cells was approximately 90% in the absence of uridine.

UMPS knockout cells [3] = test: Split auxotrophy: selection of dual transgene integration (CD19/mCherry flow cytometry); type: cell-based, human; conditions: day 16
Procedure: The UMPS locus is disrupted in the hESCs by electroporation of Cas9 RNP to insert an expression control sequence comprising a tissue-specific promoter into the genomic locus. The promoter will begin to instigate transcription due to interaction with endothelial tissue. For gene editing, hESCs are treated with 10 μm ROCK inhibitor (Y-27632) for 24 hours before electroporation. Cells at 70-80% confluence are harvested with ACCUTASE® solution (Life Technologies). 500,000 cells were used per reaction with a SpCas9 concentration of 150 μg/mL (Integrated DNA Technologies) and a Cas9:sgRNA molar ratio of 1:3 and electroporation performed in P3 Primary Cell solution (Lonza) in 16-well NUCLEOCUVETTE™ Strips in the 4D NUCLEOFECTOR system (Lonza). Immediately after electroporation, cells are transferred into one well of a MATRIGEL® protein mixture (Corning, Inc.)-coated 24 well plate containing 500 μl of mTeSR™ media (STEMCELL Technologies) with 10 μM Y-27632. Media was changed 24 hours after editing and Y-27632 is removed 48 hours after.
Independent functional domains of UMPS, i.e. OPRT and ODC, are reintroduced into UMPS knockout cells according to Example 2 using two separate vectors. A first homologous recombination donor vector carrying OPRT and mCherry (SEQ ID NO: 43) comprises sequence encoding OPRT (SEQ ID NO: 4, encoding amino acid sequence of SEQ ID NO: 5), 2A linker (SEQ ID NO: 19, SEQ ID NO: 21, or SEQ ID NO: 23, encoding amino acid sequences of SEQ ID NO: 20, SEQ ID NO: 22, and SEQ ID NO: 24, respectively), and sequence encoding mCherry fluorescent protein (SEQ ID NO: 34 or SEQ ID NO: 35, each encoding amino acid sequence of SEQ ID NO: 36). Homologous recombination donor vector carrying ODC and CD19 (SEQ ID NO: 44) comprises sequence encoding tCD19 (SEQ ID NO: 37, encoding amino acid sequence of SEQ ID NO: 38), 2A linker, and sequence encoding ODC (SEQ ID NO: 6, encoding amino acid sequence of SEQ ID NO: 7). Expression of OPRT and ODC constructs can be driven by a eukaryotic promoter such as EF1a (SEQ ID NO: 31 or SEQ ID NO: 32). Homologous recombination vectors are co-targeted for integration into safe harbor locus CCR5 (using, for example, CCR5 left and right homology arms selected from SEQ ID NOs: 11-15 as described herein). Homologous recombination vectors can further include termination signals such as a bGH-PolyA termination signal (SEQ ID NO: 39 or SEQ ID NO: 40). Cells are cultured with and without uridine, and the percent of cells expressing both CD19 and mCherry (CD19+/mCherry+) is measured by flow cytometry over time.

INS-mCherry-UMPS: tricistronic construct expressing insulin, mCherry and UMPS under endogenous insulin regulatory control sequences, integrated into the insulin locus
Auxotrophy Metric (mean GFP ratio mCherry-Off/mCherry-On, uridine-withdrawn divided by uridine-continued) ([1]; culture day 12): 0.9904
Auxotrophy Metric (mean GFP ratio mCherry-Off/mCherry-On, uridine-withdrawn divided by uridine-continued) ([1]; culture day 18): 0.9827
Auxotrophy Metric (mean GFP ratio mCherry-Off/mCherry-On, uridine-withdrawn divided by uridine-continued) ([1]; culture day 25): 0.7261

SEQ ID NO: 42: construct expressing mCherry and UMPS separated by a 2A linker under constitutive EF1a promoter, inserted into the CCR5 locus of UMPS knockout cells
% mCherry+ cells (UMPS knockout cells [2]; in the absence of uridine): approximately 90%
% mCherry+ cells (UMPS knockout cells [2]; in the presence of uridine): approximately 20%

Split UMPS: two homologous recombination donor vectors, OPRT and mCherry (SEQ ID NO: 43) and ODC and CD19 (SEQ ID NO: 44), co-targeted to CCR5
% CD19+ only (UMPS knockout cells [3]; +Uridine): 1.2%
% CD19+/mCherry+ (UMPS knockout cells [3]; +Uridine): 0.3%
% CD19-/mCherry- (UMPS knockout cells [3]; +Uridine): 92.9%
% mCherry+ only (UMPS knockout cells [3]; +Uridine): 5.6%
% CD19+ only (UMPS knockout cells [3]; No Uridine): 0.1%
% CD19+/mCherry+ (UMPS knockout cells [3]; No Uridine): 94.7%
% CD19-/mCherry- (UMPS knockout cells [3]; No Uridine): 0.1%
% mCherry+ only (UMPS knockout cells [3]; No Uridine): 5.1%
